Results on two molecules are retold here after paper PMC2988379 (The Journal of Biological Chemistry, 2010).

Molecules are shown by their SMILES. Substitutions are numbered along the chain they refer to. Read-outs that look alike come from different tables or passages of the source.

Assay in all cases: intrinsic Trp fluorescence titration
Common to all, as to assay type: binding

The target in experiment [1] is T1, PimB′ (Corynebacterium glutamicum PimB′, NCgl2106) (Corynebacterium glutamicum, UniProt Q8NNK8, D13A).
T1 sequence (Q8NNK8 1-381 D13A): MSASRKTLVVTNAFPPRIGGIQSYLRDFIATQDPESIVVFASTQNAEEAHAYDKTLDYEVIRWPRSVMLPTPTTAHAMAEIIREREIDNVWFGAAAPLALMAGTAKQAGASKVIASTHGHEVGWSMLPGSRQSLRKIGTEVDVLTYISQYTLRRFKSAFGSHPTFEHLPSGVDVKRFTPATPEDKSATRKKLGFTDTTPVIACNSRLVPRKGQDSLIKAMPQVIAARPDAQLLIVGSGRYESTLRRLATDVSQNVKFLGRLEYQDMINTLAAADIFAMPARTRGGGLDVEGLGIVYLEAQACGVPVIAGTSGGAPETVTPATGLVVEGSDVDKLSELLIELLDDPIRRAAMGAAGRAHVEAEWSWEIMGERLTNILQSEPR

The target of experiment [2] is T2, PimB′ (Corynebacterium glutamicum PimB′, NCgl2106) (Corynebacterium glutamicum, UniProt Q8NNK8, R206S).
T2 sequence (Q8NNK8 1-381 R206S): T1 sequence (Q8NNK8 1-381 D13A) with A13D, R206S

Experiment [3] concerns the target T3, PimB′ (Corynebacterium glutamicum PimB′, NCgl2106) (Corynebacterium glutamicum, UniProt Q8NNK8, H118S).
T3 sequence (Q8NNK8 1-381 H118S): T1 sequence (Q8NNK8 1-381 D13A) with A13D, H118S

The target in experiment [4] is T4, PimB′ (Corynebacterium glutamicum PimB′, NCgl2106) (Corynebacterium glutamicum, UniProt Q8NNK8, R210S).
T4 sequence (Q8NNK8 1-381 R210S): T1 sequence (Q8NNK8 1-381 D13A) with A13D, R210S

Experiment [5] deals with T5, PimB′ (Corynebacterium glutamicum PimB′, NCgl2106) (Corynebacterium glutamicum, UniProt Q8NNK8, G291S).
T5 sequence (Q8NNK8 1-381 G291S): T1 sequence (Q8NNK8 1-381 D13A) with A13D, G291S

Experiment [6] has as its target T6, PimB′ (Corynebacterium glutamicum PimB′, NCgl2106) (Corynebacterium glutamicum, UniProt Q8NNK8, I21A).
T6 sequence (Q8NNK8 1-381 I21A): T1 sequence (Q8NNK8 1-381 D13A) with A13D, I21A

For experiment [7], the target named is T7, PimB′ (Corynebacterium glutamicum PimB′, NCgl2106) (Corynebacterium glutamicum, UniProt Q8NNK8).
T7 sequence (Q8NNK8 1-381): T1 sequence (Q8NNK8 1-381 D13A) with A13D

Experiment [8] addresses T8, PimB′ (Corynebacterium glutamicum PimB′, NCgl2106) (Corynebacterium glutamicum, UniProt Q8NNK8, Q22A).
T8 sequence (Q8NNK8 1-381 Q22A): T1 sequence (Q8NNK8 1-381 D13A) with A13D, Q22A

For experiment [9], the target named is T9, PimB′ (Corynebacterium glutamicum PimB′, NCgl2106) (Corynebacterium glutamicum, UniProt Q8NNK8, G20W).
T9 sequence (Q8NNK8 1-381 G20W): T1 sequence (Q8NNK8 1-381 D13A) with A13D, G20W

In experiment [10] the target is T10, PimB′ (Corynebacterium glutamicum PimB′, NCgl2106) (Corynebacterium glutamicum, UniProt Q8NNK8, D13N).
T10 sequence (Q8NNK8 1-381 D13N): T1 sequence (Q8NNK8 1-381 D13A) with A13N

In experiment [11] the target is T11, PimB′ (Corynebacterium glutamicum PimB′, NCgl2106) (Corynebacterium glutamicum, UniProt Q8NNK8, S205G).
T11 sequence (Q8NNK8 1-381 S205G): T1 sequence (Q8NNK8 1-381 D13A) with A13D, S205G

Experiment [12] concerns the target T7, PimB′ (Corynebacterium glutamicum PimB′, NCgl2106). The source holds these as a separate data set.

The Kd is the concentration at which binding is half-saturated. High values mean lower affinity, low ones higher affinity. `Nc1nc2c(ncn2[C@@H]2O[C@H](COP(=O)(O)OP(=O)(O)O[C@H]3O[C@H](CO)[C@@H](O)[C@H](O)[C@@H]3O)[C@@H](O)[C@H]2O)c(=O)[nH]1` [GDP-Man]: the Kd in experiment [1] stood at 42.8 ± 11.9 µM; in [2], 42.7 ± 9.4 µM; in experiment [3], 72.4 ± 27.5 µM; in experiment [4], 40.2 ± 10.7 µM; in experiment [5] it was 68.7 ± 35.5 µM; in experiment [6], 56 ± 14.5 µM. The Kd in [7] came out at 19 ± 4.6 µM; in [8], 60.3 ± 22.8 µM; in experiment [9] it was 21.9 ± 6.4 µM; in experiment [10], 30.1 ± 6.9 µM; in [11], 18.7 ± 4.6 µM.

`Nc1nc2c(ncn2[C@@H]2O[C@H](COP(=O)(O)OP(=O)(O)O)[C@@H](O)[C@H]2O)c(=O)[nH]1` [GDP]: in [12], the Kd amounted to 36.5 ± 6.9 µM.
